Source: PMC12456010, “Structural constraints prevent a bat norovirus from binding to histo-blood group antigen co-factors” (Journal of Virology, 2025)

Columns and labels:
GII.27 P domain = biological target: T1, GII.27 P domain (Norovirus GII, UniProt A0A2H4Y8Z8); test: X-ray co-crystal structure, […] A; format: binding; details: co-crystallized with 30-60 molar excess; one molecule per dimer, site at dimer interface: N354, R355, D384 of one monomer, K444, G446, Y447 of the other
T1 construct: protruding (P) domain of the capsid protein, dimer

GX P domain (NPIH26) = biological target: T2, GX P domain (NPIH26) (Bat norovirus, UniProt A0A2S1TZT6); test: X-ray co-crystal structure, […] A; format: binding; details: co-crystallized with 30-60 molar excess; two fucose molecules per P domain dimer; site E332, H334, E349, T433 of one monomer; pH 6.5
T2 construct: gene ORF2; protruding (P) domain of the capsid protein, dimer

SMILES | X-ray co-crystal structure, 1.76 A (GII.27 P domain) | X-ray co-crystal structure, 1.55 A (GX P domain (NPIH26))
CC(=O)N[C@H]1[C@@H](O[C@H]2[C@@H](O)[C@@H](CO)OC(O)[C@@H]2O[C@@H]2O[C@@H](C)[C@@H](O)[C@@H](O)[C@@H]2O)O[C@H](CO)[C@H](O)[C@@H]1O (stereo partly drawn) [A-trisaccharide, α-L-fucose-(1-2)-α-D-galactose-(3-1)-2-N-acetyl-α-D-galactosamine] | a single A-trisaccharide molecule bound to the P domain dimer | 
C[C@@H]1OC(O)[C@@H](O)[C@H](O)[C@@H]1O (some centres unmarked) [FUC, fucose] |  | The GX P domain held the fucose molecules with six direct hydrogen bonds
